# In patent publication US9938259B2, “Therapeutic compositions and related methods of use” (Agios Pharmaceuticals, Inc., priority 2009, dated 2018):
# Biological target: PKM2 (Homo sapiens, UniProt P14618)
# Experiment: PKM2 Assay
# Assay type: biochemical
# Details: activation of PKM2 enzyme, LDH-coupled, absorbance at 340 nm; read-out: PKM2_AC50
# Experimental: • PKM2 stock enzyme solution was diluted in Reaction Buffer • 2 μL of compound was added into each well first, and then 180 μL of the Reaction Mix was added. • Reaction mixture with compound (without ADP) were incubated for 30 minutes at 4° C. • Plates were re-equilibrated to room temperature prior to adding 20 μL ADP to initiate the reaction. • Reaction progress was measured as changes in absorbance at 340 nm wavelength at room temperature (25° C.) • Reaction Mix: PKM2 (50 ng/well), ADP (0.7 mM), PEP (0.15 mM), NADH (180 μM), LDH (2 units) in Reaction Buffer • Reaction Buffer: 100 mM KCl, 50 mM Tris pH 7.5, 5 mM MgCl2, 1 mM DTT, 0.03% BSA.
# Chain of PKM2 (P14618 whole entry): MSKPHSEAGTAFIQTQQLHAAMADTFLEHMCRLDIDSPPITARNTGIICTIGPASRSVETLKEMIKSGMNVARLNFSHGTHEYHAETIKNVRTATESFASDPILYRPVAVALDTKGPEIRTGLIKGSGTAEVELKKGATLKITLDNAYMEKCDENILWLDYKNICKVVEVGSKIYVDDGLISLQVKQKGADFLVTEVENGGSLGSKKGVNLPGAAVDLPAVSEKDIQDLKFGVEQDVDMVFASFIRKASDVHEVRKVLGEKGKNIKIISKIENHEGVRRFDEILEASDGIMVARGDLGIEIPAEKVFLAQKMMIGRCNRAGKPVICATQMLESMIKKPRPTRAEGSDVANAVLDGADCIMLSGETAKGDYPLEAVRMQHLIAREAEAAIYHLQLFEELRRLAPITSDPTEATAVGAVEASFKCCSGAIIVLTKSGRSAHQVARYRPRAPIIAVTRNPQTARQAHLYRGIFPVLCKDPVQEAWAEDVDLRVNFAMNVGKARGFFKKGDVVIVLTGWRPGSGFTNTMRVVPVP
row,Compound,AC50 [nM]
1,COc1cc(NS(=O)(=O)c2cncn2-c2ncc(C(F)(F)F)cc2Cl)cc(OC)c1,500 to 1000
2,Cc1cc(NS(=O)(=O)c2cncn2-c2cccs2)ccc1F,1000 to 10000
3,O=S(=O)(Nc1ccc2c(c1)OCO2)c1cncn1-c1ccnc(Cl)n1,500 to 1000
4,O=S(=O)(Nc1cccc(C(F)(F)F)c1)c1cncn1-c1ncc(C(F)(F)F)cc1Cl,1000 to 10000
5,O=S(=O)(Nc1ccc(Cl)cc1)c1cccn1-c1ccnc(Cl)n1,500 to 1000
6,O=S(=O)(Oc1ccc(Cl)cc1)c1cccn1-c1ncc(C(F)(F)F)cc1Cl,500 to 1000
7,O=S(=O)(Nc1ccc(F)c(Cl)c1)c1cncn1-c1cnccn1,100 to 500
8,COc1cc(NS(=O)(=O)c2cncn2-c2ncc(C(F)(F)F)cc2Cl)cc(C(F)(F)F)c1 [drawing 122],1000 to 10000
9,O=S(=O)(Nc1ccc(Cl)cc1)c1cncn1-c1nccc(Cl)n1,1000 to 10000
10,COc1ccc(NS(=O)(=O)c2cnn(-c3ncc(C(F)(F)F)cc3Cl)c2)cc1,1000 to 10000
11,CN(C)S(=O)(=O)c1cccn1-c1ncc(C(F)(F)F)cc1Cl,> 10000
12,Cc1cc(NS(=O)(=O)c2ccnn2-c2cnccn2)ccc1F,100 to 500
13,O=S(=O)(Nc1cc(F)c(F)c(F)c1)c1cccn1-c1ccnc(Cl)n1,1000 to 10000
14,COc1ccc(NS(=O)(=O)c2cncn2-c2ccc(C(F)(F)F)cn2)cc1,1000 to 10000
15,O=S(=O)(Nc1ccc(Cl)cc1)c1cncn1-c1ncccn1,1000 to 10000
16,O=S(=O)(Nc1cccc2ccccc12)c1cncn1-c1ncc(C(F)(F)F)cc1Cl,100 to 500
17,O=S(=O)(Nc1cccc(-c2ccc(C(F)(F)F)cn2)c1)c1cccn1-c1ncc(C(F)(F)F)cc1Cl,1000 to 10000
18,Cc1cccc(NS(=O)(=O)c2cncn2-c2cnccn2)c1,100 to 500
19,O=S(=O)(Nc1ccc(Cl)cc1)c1cnn(-c2ccc(C(F)(F)F)cn2)c1,1000 to 10000
20,O=S(=O)(Nc1ccc2ncccc2c1)c1cncn1-c1ncc(C(F)(F)F)cc1Cl,1000 to 10000
21,O=S(=O)(Nc1cc(F)cc(F)c1)c1cccn1-c1ccnc(Cl)n1,500 to 1000
22,O=S(=O)(Nc1ccc(F)cc1)c1cccn1-c1ncccc1Cl,1000 to 10000
23,O=S(=O)(Nc1ccccc1C(F)(F)F)c1cccn1-c1ncc(C(F)(F)F)cc1Cl,1000 to 10000
24,O=S(=O)(Nc1cc(F)cc(F)c1)c1cccn1-c1ncccc1Cl [drawing 162],< 100
25,O=S(=O)(Nc1cccc(Cl)c1)c1cncn1-c1nccs1,500 to 1000
26,O=S(=O)(Nc1ccc2c(c1)OCO2)c1cccn1-c1nccc(Cl)n1,100 to 500

row,Compound,AC50 [nM]
1,O=S(=O)(Nc1ccc(F)cc1)c1cncn1-c1nccc(Cl)n1,1000 to 10000
2,O=S(=O)(Nc1cc(F)c(F)c(F)c1)c1cccn1-c1ncc(C(F)(F)F)cc1Cl,100 to 500
3,O=S(=O)(Nc1ccc(F)c(Cl)c1)c1cccn1-c1ncccc1Cl,100 to 500
4,COc1cc(NS(=O)(=O)c2cncn2-c2ncc(C(F)(F)F)cc2Cl)cc(C(F)(F)F)c1 [drawing 149],1000 to 10000
5,COc1cc(NS(=O)(=O)c2cccn2-c2ncc(C(F)(F)F)cc2Cl)cc(C(F)(F)F)c1,500 to 1000
6,O=S(=O)(Nc1cc(F)c(F)c(F)c1)c1cncn1-c1ncc(C(F)(F)F)cc1Cl,1000 to 10000
7,O=S(=O)(Nc1cccc(Cl)c1)c1ccnn1-c1ncc(C(F)(F)F)cc1Cl,100 to 500
8,O=S(=O)(Nc1ccc(Cl)cc1)c1cccn1-c1ncccn1,1000 to 10000
9,CCc1cccc(NS(=O)(=O)c2cncn2-c2ncc(C(F)(F)F)cc2Cl)c1,100 to 500
10,O=S(=O)(Nc1ccc(F)c(Cl)c1)c1ccnn1-c1nccs1,1000 to 10000
11,O=S(=O)(Nc1ccc(F)cc1)c1cccn1-c1ccc(C(F)(F)F)cn1,1000 to 10000
12,O=S(=O)(Nc1ccc(F)c(Cl)c1)c1cccn1-c1nccc(Cl)n1,100 to 500
13,O=S(=O)(Nc1ccc(F)c(Cl)c1)c1ccnn1-c1cccs1,> 10000
14,N#Cc1cccc(NS(=O)(=O)c2cncn2-c2ncc(C(F)(F)F)cc2Cl)c1,1000 to 10000
15,N#Cc1cccc(NS(=O)(=O)c2cccn2-c2ncc(C(F)(F)F)cc2Cl)c1,100 to 500
16,Cc1cc(C)cc(NS(=O)(=O)c2cncn2-c2cnccn2)c1,< 100
17,O=S(=O)(Nc1cc(Cl)cc(Cl)c1)c1cccn1-c1ncc(C(F)(F)F)cc1Cl,1000 to 10000
18,O=S(=O)(NCc1ccc(Cl)cc1)c1cccn1-c1ncc(C(F)(F)F)cc1Cl,> 10000
19,Cc1cc(NS(=O)(=O)c2ccnn2-c2cccs2)ccc1F,1000 to 10000
20,COc1ccc(NS(=O)(=O)c2cncn2-c2ncc(C(F)(F)F)cc2Cl)cc1,1000 to 10000
21,Cc1cc(NS(=O)(=O)c2cncn2-c2cnccn2)ccc1F,100 to 500
22,O=S(=O)(Nc1ccc(F)cc1)c1cncn1-c1ccnc(Cl)n1,1000 to 10000
23,O=S(=O)(Nc1ccc(F)c(Cl)c1)c1cncn1-c1nccs1,500 to 1000
24,CCc1cccc(NS(=O)(=O)c2cccn2-c2ncc(C(F)(F)F)cc2Cl)c1,500 to 1000
25,O=S(=O)(Nc1cc(C(F)(F)F)cc(C(F)(F)F)c1)c1cncn1-c1ncc(C(F)(F)F)cc1Cl,> 10000
26,O=S(=O)(Nc1cc(F)cc(F)c1)c1cncn1-c1ccnc(Cl)n1,> 10000

row,Compound,AC50 [nM]
1,O=S(=O)(Nc1ccc2c(c1)OCCO2)c1cncn1-c1ccc(C(F)(F)F)cn1,> 10000
2,O=S(=O)(Nc1ccc(F)c(Cl)c1)c1cncn1-c1nccc(Cl)n1,1000 to 10000
3,COc1ccc(NS(=O)(=O)c2cnn(-c3ccc(C(F)(F)F)cn3)c2)cc1,> 10000
4,O=S(=O)(Nc1cccc(Cl)c1)c1ccnn1-c1cccs1,> 10000
5,Cc1cc(NS(=O)(=O)c2cccn2-c2ncccc2Cl)ccc1F [drawing 101],< 100
6,O=S(=O)(Nc1ccc(Cl)cc1)c1cnn(-c2ncc(C(F)(F)F)cc2Cl)c1,100 to 500
7,O=S(=O)(NCc1cccnc1)c1cccn1-c1ncc(C(F)(F)F)cc1Cl,1000 to 10000
8,O=S(=O)(Nc1ccc(F)c(Cl)c1)c1cncn1-c1ncccn1 [drawing 117],100 to 500
9,O=S(=O)(Nc1ccc2c(c1)OCCO2)c1cncn1-c1ncc(C(F)(F)F)cc1Cl,1000 to 10000
10,Cc1cc(C)cc(NS(=O)(=O)c2cncn2-c2ccc(C(F)(F)F)cn2)c1,100 to 500
11,O=S(=O)(Nc1cccc(C(F)(F)F)c1)c1cccn1-c1ccnc(Cl)n1,500 to 1000
12,O=S(=O)(Nc1ccc(F)c(Cl)c1)c1cncn1-c1cccs1,1000 to 10000
13,O=S(=O)(Nc1ccc(Cl)cc1)c1cccn1-c1nccc(Cl)n1,500 to 1000
14,O=S(=O)(Nc1ccc(Oc2ccc(C(F)(F)F)cn2)c(Cl)c1)c1cccn1-c1ncc(C(F)(F)F)cc1Cl,1000 to 10000
15,Cc1cc(NS(=O)(=O)c2cccn2-c2ccnc(Cl)n2)ccc1F,< 100
16,O=S(=O)(Nc1cccc2ncccc12)c1cncn1-c1ncc(C(F)(F)F)cc1Cl,1000 to 10000
17,O=S(=O)(Nc1cccc(Cl)c1)c1cncn1-c1cccs1,1000 to 10000
18,Cc1cc(NS(=O)(=O)c2ccnn2-c2nccs2)ccc1F,1000 to 10000
19,O=S(=O)(Nc1ccc2c(c1)OCO2)c1cncn1-c1cnccn1,100 to 500
20,O=S(=O)(Nc1ccc(F)cc1)c1cncn1-c1ncc(C(F)(F)F)cc1Cl,1000 to 10000
21,O=S(=O)(Nc1cc(F)cc(F)c1)c1cccn1-c1ncccc1Cl [drawing 63],500 to 1000
22,O=S(=O)(Nc1cc(F)cc(F)c1)c1cncn1-c1ncc(C(F)(F)F)cc1Cl,500 to 1000
23,O=S(=O)(Nc1ccc(Cl)cc1)c1cccn1-c1ncccc1Cl [drawing 154],100 to 500
24,O=S(=O)(Nc1ccc2c(c1)OCO2)c1cccn1-c1ccnc(Cl)n1,< 100
